Results: patent publication US20130225508A1, “PEPTIDE CAPABLE OF BINDING TO IMMUNOGLOBULIN” (priority 2010, published 2013)

Legend:
IL-1β in plasma = IL-1β in plasma of adjuvant arthritis rats (ELISA); format: in vivo, rat; details: day 21 post-adjuvant
Method: (§1) TNF-α and IL-1β in plasma were measured in a double-point method using the TNF-α ELISA kit (Lbis® TNF-α-rat) and the IL-1β ELISA kit (Quantikine® Rat IL-1β/IL-1F2).
(§2) On day 21 post-adjuvant, the animals were subjected to autopsy, and plasma was prepared to measure IL-1β and TIN-α concentrations in plasma. In all the groups for which measurements were made, the concentration of TNF-α was below the detection limit (8 pg/mL).

TNF-α in plasma = TNF-α in plasma of adjuvant arthritis rats (ELISA); format: in vivo, rat; details: day 21 post-adjuvant
Method: as §1, §2

[1] = system: monoclonal antibody cocktail-induced arthritis; test: Mice monoclonal antibody cocktail-induced arthritis model; format: in vivo, Mice (BALB/c Cr Slc)
Method: 1-1 Mice (BALB/c Cr Slc (SPF)) were used to examine arthritis suppressing effects of peptides of the present invention on monoclonal antibody cocktail-induced arthritis. Mice were fed normal chow and allowed to acclimate for 6 days before used in experiments.
Arthritis was caused by intravenous administration of 2 mg/animal of an arthritis-inducing monoclonal antibody cocktail and three days later, intraperitoneal administration of 50 μg/animal of lipopolysaccharide (LPS). Peptides R1 and R9 each were intraperitoneally administered at a dose of 10 mg/kg once a day from the day following the LPS administration (day 4) to day 14. Peptide SP4 and the variant of peptide SP4 composed of the corresponding D-amino acids (except for glycine) each were intraperitoneally administered at a dose of 10 or 100 mg/kg once a day from the day following the LPS administration (day 4) to day 14. […] A control group was given physiological saline at 10 mL/kg once a day from day 4.
To forty 7-week-old mice, the arthritis-inducing monoclonal antibody cocktail was intravenously administered at a dose of 2 mg/animal on day 0, and LPS was intraperitoneally administered at a dose of 50 μg/animal on day 3.
[…] As a control, physiological saline was intraperitoneally administered once a day from day 4, and the volume of administration was 10 ml/kg. […] Needles ([…]; Terumo) and syringes (1.0-ml capacity; Terumo) were used for administration.
Observation of clinical score was performed on even days from day 0 to day 14 as follows. The total score for the extremities was set to a maximum of 12. Visual observation of swelling of the legs was performed.
0: normal joint 1: slight inflammation and redness 2: serious erythema and swelling over the whole limb and preventing the use of the limb 3: deformation of the limb or joint accompanied by ankylosis, joint stiffness, loss of function
Results of examinations are expressed by mean value±standard error and were analyzed using EXSAS (Version 7.1.6, Arm Systex Co., Ltd.). Clinical scores were subjected to Wilcoxon's test. Quantitative data, such as body weights and leg volumes, were subjected to Bartlett's test, followed by Dunnett's multiple comparison test if the variance was uniform or by Steel's multiple comparison test if the variance was not uniform. The level of significance was set at 5% on both sides.

[2] = 0.15 mg/kg oral, pre-administered group
[3] = day 6, 0.15 mg/kg intraperitoneal once a day from day 4
[4] = day 14, 0.15 mg/kg intraperitoneal once a day from day 4

CN(Cc1cnc2nc(N)nc(N)c2n1)c1ccc(C(=O)N[C@@H](CCC(=O)O)C(=O)O)cc1 [Methotrexate]
Concentrations of IL-1β in plasma (IL-1β in plasma; 0.15 mg/kg oral from day 10): 22.6 ± 11.3 pg/mL
Concentrations of IL-1β in plasma (IL-1β in plasma; [2]): 18.4 ± 4.2 pg/mL
Concentrations of TNF-α in plasma (TNF-α in plasma; 0.15 mg/kg oral from day 10): N.D (N.D.: below detection limit)
Concentrations of TNF-α in plasma (TNF-α in plasma; [2]): N.D (N.D.: below detection limit)
hind-limb volume ([1]; day 0, 0.15 mg/kg intraperitoneal group): 0.216 cm^3
hind-limb volume [1, 3]: 0.381 cm^3
increasing rate of hind-limb volume (volume on day 0 = 100%) [1, 3]: 176.2%
hind-limb volume ([1]; day 8 (highest value), 0.15 mg/kg intraperitoneal once a day from day 4): 0.441 cm^3
increasing rate of hind-limb volume (volume on day 0 = 100%) ([1]; day 8 (highest), 0.15 mg/kg intraperitoneal once a day from day 4): 204.2%
clinical score ([1]; day 12, 0.15 mg/kg intraperitoneal once a day from day 4): 8.2±0.9
clinical score [1, 4]: 8.6±0.9
hind-limb volume [1, 4]: 0.356 cm^3
increasing rate of hind-limb volume (volume on day 0 = 100%) [1, 4]: 165.4%
